Columns and labels:
[1] = molecular target: human activated kallikrein enzyme (Homo sapiens, UniProt P03952); experiment: Plasma kallikrein inhibition, fluorogenic PFR-AMC substrate, 500 pM activated kallikrein format; type: biochemical; conditions: 500 pM activated kallikrein, 300 uM PFR-AMC, 30 min preincubation, 10 min reaction; read-out: Primary Dose Response Assay: Average EC50
How it was run: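 High-enzyme format of the fluorogenic peptide assay, with EC50 taken from AMC signal: 500 pM activated kallikrein, 300 uM Pro-Phe-Arg-AMC, 30 min compound preincubation and 10 min reaction, all at room temperature, pH 7.5.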

plasma kallikrein = molecular target: T1, plasma kallikrein (Homo sapiens, UniProt P03952); experiment: Neat human plasma assay, FXIIa contact pathway-activated, PFR-AMC substrate; type: biochemical; conditions: citrated human plasma 78% final, 10 nM human FXIIa, 100 μM PFR-AMC; read-out: Human Plasma Assay: IC90
T1 construct: from tissue
How it was run: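 Compound inhibition of plasma kallikrein measured as PFR-AMC (100 μM) cleavage rate over 5 min at room temperature in 78% citrated human plasma activated with 10 nM FXIIa (Tris pH 7.5 buffer). IC50/IC90 from 4-parameter fit of rate versus inhibitor concentration.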

T1 sequence (P03952 391-638 limits assumed): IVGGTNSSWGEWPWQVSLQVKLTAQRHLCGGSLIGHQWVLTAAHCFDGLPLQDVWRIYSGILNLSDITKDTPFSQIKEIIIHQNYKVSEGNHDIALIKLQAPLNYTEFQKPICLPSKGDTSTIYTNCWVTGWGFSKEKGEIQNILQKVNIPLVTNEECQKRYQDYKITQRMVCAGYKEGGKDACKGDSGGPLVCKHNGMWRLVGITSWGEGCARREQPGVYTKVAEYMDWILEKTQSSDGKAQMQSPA
T1 sequence (P03952 20-390 partner limits assumed): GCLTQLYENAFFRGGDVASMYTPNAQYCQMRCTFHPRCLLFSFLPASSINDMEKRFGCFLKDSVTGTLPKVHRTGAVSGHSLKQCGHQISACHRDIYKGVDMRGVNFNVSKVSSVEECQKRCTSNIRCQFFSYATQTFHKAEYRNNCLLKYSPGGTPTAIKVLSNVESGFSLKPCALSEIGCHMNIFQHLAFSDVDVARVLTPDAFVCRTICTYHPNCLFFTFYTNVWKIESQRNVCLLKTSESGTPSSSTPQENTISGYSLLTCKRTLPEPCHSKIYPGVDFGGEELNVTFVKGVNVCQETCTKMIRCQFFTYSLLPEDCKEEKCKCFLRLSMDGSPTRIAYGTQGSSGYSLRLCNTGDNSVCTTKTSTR
human activated kallikrein enzyme, sequence (P03952 391-638 limits assumed): as the sequence (P03952 391-638 limits assumed) above
human activated kallikrein enzyme, sequence (P03952 20-390 partner limits assumed): as the sequence (P03952 20-390 partner limits assumed) above

| EC50 [1] [nM] | IC90 (plasma kallikrein) [nM] | SMILES |
| --- | --- | --- |
| < 1 | 400 to 1500 | Cc1csc([C@H]2C[C@@H]2C(=O)Nc2cc(NCc3cn4cc(C5CC5)cc(N5CC(=O)N(C)C5=O)c4n3)ncn2)n1 (racemic) [Example 446, rac-(1S*,2S*)—N-(6-(((6-cyclopropyl-8-(3-methyl-2,4-dioxoimidazolidin-1-yl)imidazo[1,2-a]pyridin-2-yl)methyl)amino)pyrimidin-4-yl)-2-(4-methylthiazol-2-yl)cyclopropane-1-carboxamide] |
| < 1 | 1500 to 10000 | O=C(Nc1cc(NCc2cn3cc(C4CC4)cc(N4C(=O)C5CCC4C5)c3n2)ccn1)[C@H]1C[C@@H]1c1cccc(Cl)c1 (stereo partly drawn) [Example 92, (1S,2S)-2-(3-chlorophenyl)-N-(4-(((6-cyclopropyl-8-(3-oxo-2-azabicyclo[2.2.1]heptan-2-yl)imidazo[1,2-a]pyridin-2-yl)methyl)amino)pyridin-2-yl)cyclopropane-1-carboxamide] |
| < 1 | 10000 to 48000 | NCc1cc(C2CC2)cn2cc(CNc3ccnc(NC(=O)[C@H]4C[C@@H]4c4cccc(Cl)c4)c3)nc12 (racemic) [Example 120, rac-(1S*,2S*)—N-(4-(((8-(aminomethyl)-6-cyclopropylimidazo[1,2-a]pyridin-2-yl)methyl)amino)pyridin-2-yl)-2-(3-chlorophenyl)cyclopropane-1-carboxamide] |
| 1 to 10 | 1500 to 10000 | COCC1CN(c2cc(C3CC3)cn3cc(CNc4cc(NC(=O)[C@H]5C[C@@H]5c5cccc(Cl)c5)ncn4)nc23)CCN1C (stereo partly drawn) [Example I-6, (1S,2S)-2-(3-chlorophenyl)-N-(6-(((6-cyclopropyl-8-(3-(methoxymethyl)-4-methylpiperazin-1-yl)imidazo[1,2-a]pyridin-2-yl)methyl)amino)pyrimidin-4-yl)cyclopropane-1-carboxamide] |
| < 1 | < 400 | O=C(Nc1cc(NCc2cn3cc(C4CC4)cc(N4CC5CC5C4=O)c3n2)ncn1)[C@H]1C[C@@H]1c1cc(Cl)ccn1 (stereo partly drawn) [Example 327, (1S,2S)-2-(4-chloropyridin-2-yl)-N-(6-(((6-cyclopropyl-8-(2-oxo-3-azabicyclo[3.1.0]hexan-3-yl)imidazo[1,2-a]pyridin-2-yl)methyl)amino)pyrimidin-4-yl)cyclopropane-1-carboxamide] |
| < 1 | 400 to 1500 | CN1CC(F)(c2cc(C3CC3)cn3cc(CNc4cc(NC(=O)[C@H]5C[C@@H]5c5cccc(Cl)c5)ncn4)nc23)C1 [Example 402, (1S,2S)-2-(3-chlorophenyl)-N-(6-(((6-cyclopropyl-8-(3-fluoro-1-methylazetidin-3-yl)imidazo[1,2-a]pyridin-2-yl)methyl)amino)pyrimidin-4-yl)cyclopropane-1-carboxamide] |
| < 1 | 400 to 1500 | CN1CCN(c2cc(C3CC3)cn3cc(CNc4cc(NC(=O)[C@H]5C[C@@H]5c5cccc(Cl)c5)ccn4)nc23)CC1 [Example I-243, (1S,2S)-2-(3-chlorophenyl)-N-(2-(((6-cyclopropyl-8-(4-methylpiperazin-1-yl)imidazo[1,2-a]pyridin-2-yl)methyl)amino)pyridin-4-yl)cyclopropane-1-carboxamide] |
| < 1 | 400 to 1500 | Cc1ccnc([C@H]2C[C@@H]2C(=O)Nc2nc(C3CC3)nc(N(C)Cc3cn4cc(C5CC5)cc(N5CC(=O)NC5=O)c4n3)n2)n1 (racemic) [Example 522, rac-(1S*,2S*)-N-(4-cyclopropyl-6-(((6-cyclopropyl-8-(2,4-dioxoimidazolidin-1-yl)imidazo[1,2-a]pyridin-2-yl)methyl)(methyl)amino)-1,3,5-triazin-2-yl)-2-(4-methylpyrimidin-2-yl)cyclopropane-1-carboxamide] |
| < 1 | 400 to 1500 | Cc1ccnc([C@H]2C[C@@H]2C(=O)Nc2nc(Cl)nc(NCc3cn4cc(C5CC5)cc(N5CC(=O)N(C)C5=O)c4n3)n2)n1 (racemic) [Example 622, rac-(1S*,2S*)—N-(4-chloro-6-(((6-cyclopropyl-8-(3-methyl-2,4-dioxoimidazolidin-1-yl)imidazo[1,2-a]pyridin-2-yl)methyl)amino)-1,3,5-triazin-2-yl)-2-(4-methylpyrimidin-2-yl)cyclopropane-1-carboxamide] |
| < 1 | 1500 to 10000 | Cc1ccnc([C@H]2C[C@@H]2C(=O)Nc2cc(OCc3cn4cc(C5CC5)ccc4n3)cnn2)n1 [Example 568, (1S,2S)-N-(5-((6-cyclopropylimidazo[1,2-a]pyridin-2-yl)methoxy)pyridazin-3-yl)-2-(4-methylpyrimidin-2-yl)cyclopropane-1-carboxamide] |
| 1 to 10 | 10000 to 48000 | O=C(Nc1cc(NCc2cn3cc(C4CC4)ccc3n2)ncn1)[C@H]1C[C@@H]1c1cc(Cl)ccn1 (single isomer, unassigned) [Example I-267, rac-(1S*,2S*)-2-(4-chloropyridin-2-yl)-N-(6-(((6-cyclopropylimidazo[1,2-a]pyridin-2-yl)methyl)amino)pyrimidin-4-yl)cyclopropane-1-carboxamide] |
| 1 to 10 | 1500 to 10000 | O=C(Nc1cc(N2C[C@@H](O)C[C@@H]2c2cn3cc(C4CC4)cc(N4CCOC4=O)c3n2)ncn1)[C@H]1C[C@@H]1c1cccc(Cl)c1 [Example 479, (1S,2S)-2-(3-chlorophenyl)-N-(6-((2R,4S)-2-(6-cyclopropyl-8-(2-oxooxazolidin-3-yl)imidazo[1,2-a]pyridin-2-yl)-4-hydroxypyrrolidin-1-yl)pyrimidin-4-yl)cyclopropane-1-carboxamide] |
| < 1 | 400 to 1500 | CN1C(=O)CN(c2cc(C3CC3)cn3cc(CNc4cc(NC(=O)[C@H]5C[C@@H]5c5cc(Cl)ccn5)ncn4)nc23)C1=O (racemic) [Example I-262, rac-(1S*,2S*)-2-(4-chloropyridin-2-yl)-N-(6-(((6-cyclopropyl-8-(3-methyl-2,4-dioxoimidazolidin-1-yl)imidazo[1,2-a]pyridin-2-yl)methyl)amino)pyrimidin-4-yl)cyclopropane-1-carboxamide] |
| < 1 | 400 to 1500 | O=C(Nc1cc(NCc2cn3cc(C4CC4)cc(N4CCN5CCCC5C4)c3n2)ccn1)[C@H]1C[C@@H]1c1cccc(Cl)c1 (stereo partly drawn) [Example I-231, (1S,2S)-2-(3-chlorophenyl)-N-(4-(((6-cyclopropyl-8-(hexahydropyrrolo[1,2-a]pyrazin-2(1H)-yl)imidazo[1,2-a]pyridin-2-yl)methyl)amino)pyridin-2-yl)cyclopropane-1-carboxamide] |
| 1 to 10 | 10000 to 48000 | CC(O)c1cc(C2CC2)cn2cc(CNc3cc(NC(=O)[C@H]4C[C@@H]4c4cccc(Cl)c4)ncn3)nc12 (stereo partly drawn) [Example 281, (1S,2S)-2-(3-chlorophenyl)-N-(6-(((6-cyclopropyl-8-(1-hydroxyethyl)imidazo[1,2-a]pyridin-2-yl)methyl)amino)pyrimidin-4-yl)cyclopropane-1-carboxamide] |
| < 1 | 1500 to 10000 | O=C(Nc1cc(NCc2cn3cc(C4CC4)ccc3n2)nc(=O)[nH]1)[C@H]1C[C@@H]1c1cccc(Cl)c1 [Example 296, (1S,2S)-2-(3-chlorophenyl)-N-(6-(((6-cyclopropylimidazo[1,2-a]pyridin-2-yl)methyl)amino)-2-oxo-2,3-dihydropyrimidin-4-yl)cyclopropane-1-carboxamide] |
| < 1 | < 400 | CN1CC(F)(c2cc(C3CC3)cn3cc(CNc4ccnc(NC(=O)[C@H]5C[C@@H]5c5cccc(Cl)c5)c4)nc23)C1 [Example I-227, (1S,2S)-2-(3-chlorophenyl)-N-(4-(((6-cyclopropyl-8-(3-fluoro-1-methylazetidin-3-yl)imidazo[1,2-a]pyridin-2-yl)methyl)amino)pyridin-2-yl)cyclopropane-1-carboxamide] |
| < 1 | 400 to 1500 | O=C(Nc1cc(NCc2cn3cc(C4CC4)cc(N4CCN5CCC4C5)c3n2)ccn1)[C@H]1C[C@@H]1c1cccc(Cl)c1 (stereo partly drawn) [Example I-23, (1S,2S)-N-(4-(((8-(1,4-diazabicyclo[3.2.1]octan-4-yl)-6-cyclopropylimidazo[1,2-a]pyridin-2-yl)methyl)amino)pyridin-2-yl)-2-(3-chlorophenyl)cyclopropane-1-carboxamide] |
| < 1 | 400 to 1500 | O=C(Nc1cc(NCc2cn3cc(C4CC4)cc(N4CCOC4=O)c3n2)ncn1)[C@H]1C[C@@H]1c1cc(Cl)ccn1 (racemic) [Example I-173, rac-(1S*,2S*)-2-(4-chloropyridin-2-yl)-N-(6-(((6-cyclopropyl-8-(2-oxooxazolidin-3-yl)imidazo[1,2-a]pyridin-2-yl)methyl)amino)pyrimidin-4-yl)cyclopropane-1-carboxamide] |
| 1 to 10 | 1500 to 10000 | CC1(C)CN(c2cc(C3CC3)cn3cc(CNc4cc(NC(=O)[C@H]5C[C@@H]5c5cccc(Cl)c5)ncn4)nc23)C(=O)O1 [Example I-199, (1S,2S)-2-(3-chlorophenyl)-N-(6-(((6-cyclopropyl-8-(5,5-dimethyl-2-oxooxazolidin-3-yl)imidazo[1,2-a]pyridin-2-yl)methyl)amino)pyrimidin-4-yl)cyclopropane-1-carboxamide] |

| SMILES | EC50 [1] [nM] | IC90 (plasma kallikrein) [nM] |
| --- | --- | --- |
| Cc1ccnc([C@H]2C[C@@H]2C(=O)Nc2cc(Cc3cn4cc(C5CC5)cc(N5CC(=O)N(C)C5=O)c4n3)ncn2)n1 (racemic) [Example 620, rac-(1S*,2S*)—N-(6-((6-cyclopropyl-8-(3-methyl-2,4-dioxoimidazolidin-1-yl)imidazo[1,2-a]pyridin-2-yl)methyl)pyrimidin-4-yl)-2-(4-methylpyrimidin-2-yl)cyclopropane-1-carboxamide] | 1 to 10 | 400 to 1500 |

— patent US20240228488A1 (TAKEDA PHARMACEUTICAL COMPANY LIMITED, priority 2021, published 2024)
